The results in this text go back to patent US10927128B2, “Oxadiazaspiro compounds for the treatment of drug abuse and addiction” (ESTEVE PHARMACEUTICALS, S.A., priority 2015, dated 2021).

This assay addresses human σ1 receptor (Homo sapiens (Human), UniProt Q99720). In words: Human σ1 receptor radioligand assay. It is filed as binding. As to the method: Human σ1 Receptor Radioligand Assay
To investigate binding properties of test compounds to human σ1 receptor, transfected HEK-293 membranes and [^3H](+)-pentazocine (Perkin Elmer, NET-1056), as the radioligand, were used. The assay was carried out with 7 μg of membrane suspension, 5 nM of [^3H](+)-pentazocine in either absence or presence of either buffer or 10 μM Haloperidol for total and non-specific binding, respectively. Binding buffer contained Tris-HCl 50 mM at pH 8. Plates were incubated at 37° C. for 120 minutes. After the incubation period, the reaction mix was then transferred to Multiscreen HTS, FC plates (Millipore), filtered and plates were washed 3 times with ice-cold 10 mM Tris-HCL (pH7.4). Filters were dried and counted at approximately 40% efficiency in a MicroBeta scintillation counter (Perkin-Elmer) using EcoScint liquid scintillation cocktail

Like-named read-outs stand apart in the source and are kept apart here.

Sequence of human σ1 receptor (Q99720 whole entry): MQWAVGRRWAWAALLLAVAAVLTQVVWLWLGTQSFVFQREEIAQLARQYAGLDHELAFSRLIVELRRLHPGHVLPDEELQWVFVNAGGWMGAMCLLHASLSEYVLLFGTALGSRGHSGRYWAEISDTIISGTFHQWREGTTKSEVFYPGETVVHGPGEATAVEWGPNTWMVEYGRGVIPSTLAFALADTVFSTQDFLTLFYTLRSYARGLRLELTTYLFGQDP

Take `CCN1CC2(CCN(CCC(C)(C)C)CC2)O[C@@H](C)C1=O` [Example 52, (S)-9-(3,3-dimethylbutyl)-4-ethyl-2-methyl-1-oxa-4,9-diazaspiro[5.5]undecan-3-one]: the Ki (in general, a dissociation constant, usually derived from enzyme kinetics or from competition with a known ligand) was 100 to 500 nM.

On to `CCN1CC(C)OC2(CCN(CCc3ccccc3)CC2)C1` (centres unmarked) [Example 112, 4-Ethyl-2-methyl-9-phenethyl-1-oxa-4,9-diazaspiro[5.5]undecane], for which the inhibition constant (Ki) ([3H](+)-pentazocine radioligand, transfected HEK-293 membranes, read-out: Ki-σ1) is below 100 nM.
